What was measured:
[1] = acute oral toxicity test, LD50 by improved karber method; conditions: for LD50 at 7 days: both, Konmin, mouse, in vivo, po
Haemophilus parasuis = experiment: in vitro susceptibility, MIC by mini broth dilution; format: cell-based
How it was run: (§1)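 MICs determined by mini broth dilution following NCCLS standards, using two-fold serial dilutions of compound in DMSO across 11 gradients, in duplicate rows. Strains were revived and subcultured at 35 °C for 20 h. Bacterial suspension was diluted 1:200 in liquid medium.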

[2] = tested on: Pasteurella multocida CVCC399; experiment: as above; format: cell-based; conditions: strain CVCC399
How it was run: as §1

[3] = tested on: Streptococcus equines CVCC556; experiment: as above; format: cell-based; conditions: strain CVCC556
How it was run: as §1

[4] = tested on: Actinobacillus pleuropneumoniae CVCC262; experiment: as above; format: cell-based; conditions: strain CVCC262
How it was run: as §1

[5] = tested on: Staphylococcus aureus CVCC26003; experiment: as above; format: cell-based; conditions: strain CVCC26003
How it was run: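 MICs were determined by mini broth dilution under NCCLS standards in CAMHB, using revived S. aureus CVCC26003 subcultured 20 h at 35° C. Compounds were two-fold serially diluted in DMSO across 11 wells, with duplicate rows. Bacterial suspension was diluted 1:200 in medium before inoculation.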

[6] = tested on: Streptococcus pneumoniae CMCC 31203; experiment: in vivo antibacterial test, survival of infected mice; design: species or system BALB/c mice; conditions: mice infected i.p. with Streptococcus pneumoniae; 5 mg per kg subcutaneous for 3 consecutive days; observed until the seventh day

CCCN1C[C@H](C)[C@@H](O)[C@](C)(O)[C@@H](CC)OC(=O)[C@H](C)[C@@H](O[C@H]2C[C@@](C)(OC)[C@@H](O)[C@H](C)O2)[C@H](C)[C@@H](O[C@@H]2O[C@H](C)C[C@H](N(C)C)[C@H]2O)[C@](C)(O)C[C@H]1C [Gamithromycin, reference compound]
LD50 ([1]; per os, gavaged once, in 0.2% sodium carboxymethylcellulose, observed 7 days): 2165.2 mg/kg | MIC values, Haemophilus parasuis (Haemophilus parasuis): 0.25 ug/mi | MIC values, Pasteurella multocida CVCC399 [2]: 0.25 ug/mi | MIC values, Streptococcus equines CVCC556 [3]: 0.5 ug/mi | MIC values, Actinobacillus pleuropneumoniae CVCC262 [4]: 0.25 ug/mi | MIC values, Staphylococcus aureus CVCC26003 [5]: 0.25 ug/mi

CCCCNC[C@]1(O)[C@H](C)OC(O[C@@H]2[C@@H](C)[C@@H](O[C@@H]3O[C@H](C)C[C@H](N(C)C)[C@H]3O)[C@](C)(O)C[C@@H](C)NC[C@@H](C)[C@H](O)[C@](C)(O)[C@H](CC)OC(=O)[C@@H]2C)C[C@@]1(C)OC (stereo partly drawn) [syzx-2, (2R,3S,4R,5S,8R,10R,11R,12S,13S,14R)-13-[(2,6-dideoxy-3-C-methyl-3-O-methyl-4-C-[(butylamino)methyl]-α-L-ribopyranosyl)oxy]-2-ethyl-3,4,10-trihydroxy-3,5,8,10,12,14-hexamethyl-11-[[3,4,6-trideoxy-3-(dimethylamino)-β-D-xylo-hexopyranosy]oxy]-1-oxa-7-azacyclopentadecan-15-one]
LD50 at 7 days [1]: 2550 mg/kg | Animal survival rate (surviving/total animals) [6]: 8/10

CC[C@@H]1OC(=O)[C@H](C)[C@H](OC2C[C@@](C)(OC)[C@](O)(CN(CC)CC)[C@H](C)O2)[C@@H](C)[C@@H](O[C@@H]2O[C@H](C)C[C@H](N(C)C)[C@H]2O)[C@](C)(O)C[C@@H](C)NC[C@@H](C)[C@H](O)[C@]1(C)O (stereo partly drawn) [syzx-3, (2R,3S,4R,5S,8R,10R,11R,12S,13S,14R)-13-[(2,6-dideoxy-3-C-methyl-3-O-methyl-4-C-[(diethylamino)methyl]-α-L-ribopyranosyl)oxy]-2-ethyl-3,4,10-trihydroxy-3,5,8,10,12,14-hexamethyl-11-[[3,4,6-trideoxy-3-(dimethylamino)-β-D-xylo-hexopyranosy]oxy]-1-oxa-7-azacyclopentadecan-15-one]
LD50 at 7 days [1]: 2490 mg/kg | Animal survival rate (surviving/total animals) [6]: 8/10

CC[C@@H]1OC(=O)[C@H](C)[C@H](OC2C[C@@](C)(OC)[C@](O)(CN3CCOCC3)[C@H](C)O2)[C@@H](C)[C@@H](O[C@@H]2O[C@H](C)C[C@H](N(C)C)[C@H]2O)[C@](C)(O)C[C@@H](C)NC[C@@H](C)[C@H](O)[C@]1(C)O (stereo partly drawn) [syzx-5, (2R,3S,4R,5S,8R,10R,11R,12S,13S,14R)-13-[(2,6-dideoxy-3-C-methyl-3-O-methyl-4-C-[(morpholinyl)methyl]-α-L-ribopyranosyl)oxy]-2-ethyl-3,4,10-trihydroxy-3,5,8,10,12,14-hexamethyl-11-[[3,4,6-trideoxy-3-(dimethylamino)-β-D-xylo-hexopyranosy]oxy]-1-oxa-7-azacyclopentadecan-15-one]
LD50 at 7 days [1]: 2730 mg/kg | Animal survival rate (surviving/total animals) [6]: 7/10

CC[C@@H]1OC(=O)[C@H](C)[C@H](OC2C[C@@](C)(OC)[C@](O)(CNC3CC3)[C@H](C)O2)[C@@H](C)[C@@H](O[C@@H]2O[C@H](C)C[C@H](N(C)C)[C@H]2O)[C@](C)(O)C[C@@H](C)NC[C@@H](C)[C@H](O)[C@]1(C)O (stereo partly drawn) [syzx-6, (2R,3S,4R,5S,8R,10R,11R,12S,13S,14R)-13-[(2,6-dideoxy-3-C-methyl-3-O-methyl-4-C-[(cyclopropylamino)methyl]-α-L-ribopyranosyl)oxy]-2-ethyl-3,4,10-trihydroxy-3,5,8,10,12,14-hexamethyl-11-[[3,4,6-trideoxy-3-(dimethylamino)-β-D-xylo-hexopyranosy]oxy]-1-oxa-7-azacyclopentadecan-15-one]
LD50 at 7 days [1]: 2610 mg/kg | Animal survival rate (surviving/total animals) [6]: 8/10

CC[C@@H]1OC(=O)[C@H](C)[C@H](OC2C[C@@](C)(OC)[C@](O)(CNC3CCCC3)[C@H](C)O2)[C@@H](C)[C@@H](O[C@@H]2O[C@H](C)C[C@H](N(C)C)[C@H]2O)[C@](C)(O)C[C@@H](C)NC[C@@H](C)[C@H](O)[C@]1(C)O (stereo partly drawn) [syzx-30, (2R,3S,4R,5S,8R,10R,11R,12S,13S,14R)-13-[(2,6-dideoxy-3-C-methyl-3-O-methyl-4-C-[(cyclopentylamino)-methyl]-α-L-ribopyranosyl)oxy]-2-ethyl-3,4,10-trihydroxy-3,5,8,10,12,14-hexamethyl-11-[[3,4,6-trideoxy-3-(dimethylamino)-β-D-xylo-hexopyranosy]oxy]-1-oxa-7-azacyclopentadecan-15-one]
Animal survival rate (surviving/total animals) [6]: 8/10

CC[C@@H]1OC(=O)[C@H](C)[C@H](OC2C[C@@](C)(OC)[C@](O)(CNCc3cccc(OC)c3)[C@H](C)O2)[C@@H](C)[C@@H](O[C@@H]2O[C@H](C)C[C@H](N(C)C)[C@H]2O)[C@](C)(O)C[C@@H](C)NC[C@@H](C)[C@H](O)[C@]1(C)O (stereo partly drawn) [syzx-35, (2R,3S,4R,5S,8R,10R,11R,12S,13S,14R)-13-[(2,6-dideoxy-3-C-methyl-3-O-methyl-4-C-[[3-methoxybenzyl-amino]-methyl]-α-L-ribopyranosyl)oxy]-2-ethyl-3,4,10-trihydroxy-3,5,8,10,12,14-hexamethyl-11-[[3,4,6-trideoxy-3-(dimethylamino)-β-D-xylo-hexopyranosy]oxy]-1-oxa-7-azacyclopentadecan-15-one]
Animal survival rate [6]: 70% | Animal survival rate (surviving/total animals) [6]: 7/10

CCCCCNC[C@]1(O)[C@H](C)OC(O[C@@H]2[C@@H](C)[C@@H](O[C@@H]3O[C@H](C)C[C@H](N(C)C)[C@H]3O)[C@](C)(O)C[C@@H](C)NC[C@@H](C)[C@H](O)[C@](C)(O)[C@H](CC)OC(=O)[C@@H]2C)C[C@@]1(C)OC (stereo partly drawn) [syzx-47, (2R,3S,4R,5S,8R,10R,11R,12S,13S,14R)-13-[(2,6-dideoxy-3-C-methyl-3-O-methyl-4-C-[[n-pentyl-amino]-methyl]-α-L-ribopyranosyl)oxy]-2-ethyl-3,4,10-trihydroxy-3,5,8,10,12,14-hexamethyl-11-[[3,4,6-trideoxy-3-(dimethylamino)-β-D-xylo-hexopyranosy]oxy]-1-oxa-7-azacyclopentadecan-15-one]
Animal survival rate (surviving/total animals) [6]: 9/10

CC[C@@H]1OC(=O)[C@H](C)[C@H](OC2C[C@@](C)(OC)[C@](O)(CNCc3cnc(C)cn3)[C@H](C)O2)[C@@H](C)[C@@H](O[C@@H]2O[C@H](C)C[C@H](N(C)C)[C@H]2O)[C@](C)(O)C[C@@H](C)NC[C@@H](C)[C@H](O)[C@]1(C)O (stereo partly drawn) [syzx-65, (2R,3S,4R,5S,8R,10R,11R,12S,13S,14R)-13-[(2,6-dideoxy-3-C-methyl-3-O-methyl-4-C-{[(5-methyl-pyrazin-2-yl-methyl)-amino]-methyl}-α-L-ribopyranosyl)oxy]-2-ethyl-3,4,10-trihydroxy-3,5,8,10,12,14-hexamethyl-11-[[3,4,6-trideoxy-3-(dimethylamino)-β-D-xylo-hexopyranosy]oxy]-1-oxa-7-azacyclopentadecan-15-one]
Animal survival rate (surviving/total animals) [6]: 9/10

CC[C@@H]1OC(=O)[C@H](C)[C@H](OC2C[C@@](C)(OC)[C@](O)(CNCCCOC)[C@H](C)O2)[C@@H](C)[C@@H](O[C@@H]2O[C@H](C)C[C@H](N(C)C)[C@H]2O)[C@](C)(O)C[C@@H](C)NC[C@@H](C)[C@H](O)[C@]1(C)O (stereo partly drawn) [syzx-66]
Animal survival rate (surviving/total animals) [6]: 8/10

CC[C@@H]1OC(=O)[C@H](C)[C@H](OC2C[C@@](C)(OC)[C@](O)(CNCC3CCCCC3)[C@H](C)O2)[C@@H](C)[C@@H](O[C@@H]2O[C@H](C)C[C@H](N(C)C)[C@H]2O)[C@](C)(O)C[C@@H](C)NC[C@@H](C)[C@H](O)[C@]1(C)O (stereo partly drawn) [syzx-67]
Animal survival rate (surviving/total animals) [6]: 8/10

CCCN1C[C@H](C)[C@@H](O)[C@](C)(O)[C@@H](CC)OC(=O)[C@H](C)[C@@H](O[C@H]2C[C@@](C)(OC)[C@](O)(Cn3ccnc3C)[C@H](C)O2)[C@H](C)[C@@H](O[C@@H]2O[C@H](C)C[C@H](N(C)C)[C@H]2O)[C@](C)(O)C[C@H]1C [syzx-238]
MIC values, Haemophilus parasuis (Haemophilus parasuis): 1 ug/mi | MIC values, Pasteurella multocida CVCC399 [2]: 4 ug/mi | MIC values, Streptococcus equines CVCC556 [3]: 0.25 ug/mi | MIC values, Actinobacillus pleuropneumoniae CVCC262 [4]: 1 ug/mi | MIC values, Staphylococcus aureus CVCC26003 [5]: 1 ug/mi

CCCN1C[C@H](C)[C@@H](O)[C@](C)(O)[C@@H](CC)OC(=O)[C@H](C)[C@@H](O[C@H]2C[C@@](C)(OC)[C@](O)(CN(C)CCO)[C@H](C)O2)[C@H](C)[C@@H](O[C@@H]2O[C@H](C)C[C@H](N(C)C)[C@H]2O)[C@](C)(O)C[C@H]1C [syzx-239]
MIC values, Haemophilus parasuis (Haemophilus parasuis): 2 ug/mi | MIC values, Pasteurella multocida CVCC399 [2]: 8 ug/mi | MIC values, Streptococcus equines CVCC556 [3]: 0.25 ug/mi | MIC values, Actinobacillus pleuropneumoniae CVCC262 [4]: 4 ug/mi | MIC values, Staphylococcus aureus CVCC26003 [5]: 4 ug/mi

(2R,3S,4R,5S,8R,10R,11R,12S,13S,14R)-13-[(2,6-dideoxy-3-C-methyl-3-O-methyl-4-C-[(thienylformyloxymethyl-2-amino)-methyl]-α-L-ribopyranosyl)oxy]-2-ethyl-3,4,10-trihydroxy-3,5,8,10,12,14-hexamethyl-11-[[3,4,6-trideoxy-3-(dimethylamino)-β-D-xylo-hexopyranosy]oxy]-1-oxa-7-azacyclopentadecan-15-one [syzx-77]
MIC values, Haemophilus parasuis (Haemophilus parasuis): 0.25 ug/mi | MIC values, Pasteurella multocida CVCC399 [2]: 0.5 ug/mi | MIC values, Streptococcus equines CVCC556 [3]: 0.5 ug/mi | MIC values, Actinobacillus pleuropneumoniae CVCC262 [4]: 16 ug/mi | MIC values, Staphylococcus aureus CVCC26003 [5]: 0.25 ug/mi
